# “Also recorded” adds a separate entry of the source.
# What was measured:
# [1] = system: Caki-1 human renal cancer cells; test: Caki-1 renal tumour xenograft in SCID mice, SEQ ID NO:1 and chemotherapeutics; type: in vivo
# Procedure: Caki-1 human renal cancer cells (1×10^7 cells in […] of PBS) were subcutanteously injected into the right flank of 6-7 weeks old female SCID mice. After the size of tumour reached an approximate volume of 200 mm^3, 7 days post tumour cell injection, SEQ ID NO:1 was administered by bolus infusion into the tail vein every other day at 10 mg/kg. Control animals received saline alone for the same period. The antitumour effect of SEQ ID NO:1 was further compared to that of two chemotherapeutic agents: 5-FU and vinblastine. 5-FU was administered intraperitoneally at days 7-13, 21-27 and 35-36 with a dose of 13 mg/kg/day, while vinblastin was administered intraperitoneally at days 7, 14, 21, 28 and 35 at a dose of 0.6 mg/kg/week. Antitumour effects of each of these compounds were further compared to those of SEQ ID NO:1 in combination with 5-FU or with vinblastin. The two chemotherapeutic agents were applied as described above, one hour after the treatments with SEQ ID NO:1 when combination treatments occurred on the same day. All treatments were stopped at day 36. A day after the last treatment, tumours were excised from the animals and their weights were measured.
# [2] = system: HT-29 human colon cancer cells; test: HT-29 colon tumour xenograft in CD-1 nude mice; type: in vivo
# Procedure: HT-29 human colon cancer cells (3×10^6 cells in 100 μl of PBS) were subcutaneously injected into the right flank of 6-7 weeks old female CD-1 nude mice. After the size of tumour reached an approximate volume of 50 mm^3, 4 days post tumour cell injection, mitomycin C was administered by bolus infusion into the tail vein at days 4, 11 and 18 with a dose of 3.5 mg/kg/week. Antitumour effect of mitomycin C was further compared to that of SEQ ID NO:1 in combination with mitomycin C. SEQ ID NO:1 was administered by bolus infusion into the tail vein every day at 6 mg/kg and mitomycin C was administered intravenously at days 4, 11 and 18 with a dose of 3.5 mg/kg/week, one hour after the treatments with SEQ ID NO:1. Control animals received saline alone for the same period as SEQ ID NO:1. All treatments were stopped at day 22. A day after the last treatment, tumours were excised from the animals and their weights were measured.
# HT-29 human colon cancer cells (3×10^6 cells in 100 μl of PBS) were subcutaneously injected into the right flank of 5-6 week old female CD-1 nude mice. After the size of tumour reached an approximate volume of 100 mm^3, 7 days post tumour cell injection, SEQ ID NO:1 was administered by bolus infusion into the tail vein every other day at 10 mg/kg. Control animals received saline alone for the same period. Antitumour effect of SEQ ID NO:1 was further compared to that of CPT-11 alone or that of SEQ ID NO:1 in combination with CPT-11. CPT-11 was administered intraperitoneally for 5 days in a row from […] with a dose of 20 mg/kg in 100 μl saline. All treatments were stopped at day 32. A day after the last treatment, tumours were excised from the animals and their weights were measured.
# HT-29 human colon cancer cells (3×10^6 cells in 100 μl of PBS) were subcutaneously injected into the right flank of 6-7 week old female CD-1 nude mice. Treatments started at day 5 post tumour cell injection, SEQ ID NO:1 and 5-FU were administered as outlined below: • Groups and treatment: • Group 1. Saline treated group: saline:0.1 ml/2 days, i.v.; • Group 2. SEQ ID NO:1 treated group: 10 mg/kg/2 days in 100 μL saline, i.v.; • Group 3. 5-FU treated group:13 mg/kg/5 days/week (one week on and one week off), i.v.; • Group 4. SEQ ID NO:1 plus 5-FU treated group.
# HT-29 human colon cancer cells (3×10^6 cells in 100 μl of PBS) were subcutaneously injected into the right flank of 5-6 week old female CD-1 nude mice. Treatments started 4 days post tumour cell injection, SEQ ID NO: 1 and Capecitabine were administered as outlined below: • Group and Treatment: • Group 1: treated with 0.2 ml vehicle solution for capecitabine, o.p.; • Group 2: treated with 0.1 ml saline, i.v.; • Group 3: treated with 359 mg/kg/day×5/w Capecitabine in 0.2 ml vehicle solution, o.p.; • Group 4: treated with 10 mg/kg/2 days SEQ ID NO:1 in 0.1 ml saline i.v.; • Group 5: treated with 10 mg/kg/2 days SEQ ID NO:1 in 0.1 ml saline, i.v. plus 359 mg/kg/day×5/w capecitabine in 0.2 ml vehicle solution, o.p.
sequence,measurement,setting,value
"GGCTAAATCGCTCCACCAAG (chemistry not given here) [SEQ ID NO: 1, antisense oligonucleotide that hybridizes to the coding region of human ribonucleotide reductase R2 mRNA]",Tumour weight as % of saline control,"[1]; Caki (renal), Mouse CD-1",3.3%
same,antitumour effect (tumour weight),"[1]; SEQ ID NO:1 10 mg/kg every other day i.v., 5-FU 13 mg/kg/day i.p., vinblastin 0.6 mg/kg/week i.p.",significant delay of tumour growth; also recorded: superior to the inhibitory effects observed with each of two chemotherapeutic compounds
same,antitumour effect (tumour weight),"[2]; Example 12.2, SEQ ID NO:1 10 mg/kg every other day i.v., CPT-11 20 mg/kg i.p. 5 days",significant delay of tumour growth; also recorded: superior to the inhibitory effects observed with CPT-11 alone
same,Tumour weight as % of saline control,"[2]; HT-29 (colon), Mouse CD-1, CPT-11 study",19%
